From ChEMBL document CHEMBL1158204, “Metabolites from an Antarctic sponge-associated bacterium, Pseudomonas aeruginosa” (1996)
Active and inactive are the calls of the source. The calls are words filed in the database; no cut-off is given here.

Key:
Format in all cases: functional
Details in all cases: for MIC: 48 h
Bacillus cereus = experiment: Antibacterial activity against Bacillus cereus after 2 days by disk assay
Staphylococcus aureus = experiment: Antibacterial activity against Staphylococcus aureus after 2 days by disk assay
Micrococcus luteus = experiment: Antibacterial activity against Micrococcus luteus after 2 days by disk assay

Row | SMILES | Activity (Bacillus cereus) | Activity (Staphylococcus aureus) | Activity (Micrococcus luteus) | MIC (Bacillus cereus) [µg/mL] | MIC (Staphylococcus aureus) [µg/mL] | MIC (Micrococcus luteus) [µg/mL]
1 | CSCC[C@@H]1NC(=O)[C@@H]2CCCN2C1=O | inactive | inactive | inactive | – | – | –
2 | O=C1N[C@@H](Cc2ccccc2)C(=O)N2CCC[C@@H]12 | inactive | inactive | inactive | – | – | –
3 | O=C1N[C@@H](Cc2ccc(O)cc2)C(=O)N2CCC[C@@H]12 | inactive | inactive | inactive | – | – | –
4 | NC(=O)c1cccc2nc3ccccc3nc12 | – | – | – | < 0.5 | < 5 | < 5
5 | O=C(O)c1cccc2nc3ccccc3nc12 [PHENAZINE-1-CARBOXYLIC ACID] | – | – | – | < 0.5 | < 5 | < 5
6 | CC[C@H](C)[C@@H]1NC(=O)[C@@H]2CCCN2C1=O | inactive | inactive | inactive | – | – | –
7 | CC(C)C[C@@H]1NC(=O)[C@@H]2CCCN2C1=O | inactive | inactive | inactive | – | – | –
8 | CC(C)[C@@H]1NC(=O)[C@@H]2CCCN2C1=O | inactive | inactive | inactive | – | – | –
